Patent US20070219203A1, “Arylalkylamino-substituted quinazoline analogues” (Neurogen Corporation, priority 2004, published 2007)

molecular target: T1, human capsaicin receptor (Homo sapiens, UniProt Q8NER1); test: Calcium mobilization assay, antagonist activity (Example 6); format: cell-based; details: Table I; 50% decrease in fluorescence response of cells expressing human capsaicin receptor exposed to capsaicin
T1 construct: expressed in transfected cells
Experimental: A cDNA encoding full length human capsaicin receptor (SEQ ID NO:1, 2 or 3 of U.S. Pat. No. 6,482,611) is subcloned in the plasmid pBK-CMV (Stratagene, La Jolla, Calif.) for recombinant expression in mammalian cells.
Human embryonic kidney (HEK293) cells are transfected with the pBK-CMV expression construct encoding the full length human capsaicin receptor using standard methods. The transfected cells are selected for two weeks in media containing G418 (400 μg/ml) to obtain a pool of stably transfected cells. Independent clones are isolated from this pool by limiting dilution to obtain clonal stable cell lines for use in subsequent experiments.
Cells transfected with expression plasmids (as described in Example 4) and thereby expressing human capsaicin receptor are seeded and grown to 70-90% confluency in FALCON black-walled, clear-bottomed 96-well plates (#3904, BECTON-DICKINSON, Franklin Lakes, N.J.). The culture medium is emptied from the 96 well plates and […] calcium sensitive dye (Molecular Probes, Eugene, Oreg.) is added to each well (dye solution: 1 mg […], 440 μL DMSO and 440 μl 20% pluronic acid in DMSO, diluted 1:250 in Krebs-Ringer HEPES (KRH) buffer (25 mM HEPES, 5 mM KCl, 0.96 mM NaH2PO4, 1 mM MgSO4, 2 mM CaCl2, 5 mM glucose, 1 mM probenecid, pH 7.4), 50 μl diluted solution per well). Plates are covered with aluminum foil and incubated at 37° C. for 1-2 hours in an environment containing 5% CO2. After the incubation, the dye is emptied from the plates, and the cells are washed once with KRH buffer, and resuspended in KRH buffer.
To measure the ability of a test compound to agonize or antagonize a calcium mobilization response in cells expressing capsaicin receptors to capsaicin or other vanilloid agonist, the EC50 of the agonist capsaicin is first determined. An additional 20 μl of KRH buffer and 1 μl DMSO is added to each well of cells, prepared as described above. 100 μl capsaicin in KRH buffer is automatically transferred by the FLIPR instrument to each well. Capsaicin-induced calcium mobilization is monitored using either FLUOROSKAN ASCENT (Labsystems; Franklin, Mass.) or FLIPR (fluorometric imaging plate reader system; Molecular Devices, Sunnyvale, Calif.) instruments. Data obtained between 30 and 60 seconds after agonist application are used to generate an 8-point concentration response curve, with final capsaicin concentrations of 1 nM to 3 μM. KALEIDAGRAPH software (Synergy Software, Reading, Pa.) is used to fit the data to the equation: y=a*(1/(1+(b/x)^c)) to determine the 50% excitatory concentration (EC50) for the response. In this equation, y is the maximum fluorescence signal, x is the concentration of the agonist or antagonist (in this case, capsaicin), a is the Emax, b corresponds to the EC50 value and c is the Hill coefficient. Determination of Agonist Activity
Test compounds are dissolved in DMSO, diluted in 20 μl KRH buffer so that the final concentration of test compounds in the assay well is between 1 μM and 5 μM, and added to cells prepared as described above. The 96 well plates containing prepared cells and test compounds are incubated in the dark, at room temperature for 0.5 to 6 hours. It is important that the incubation not continue beyond 6 hours. Just prior to determining the fluorescence response, 100 μl capsaicin in KRH buffer at twice the EC50 concentration determined as described above is automatically added by the FLIPR instrument to each well of the 96 well plate for a final sample volume of 200 μl and a final capsaicin concentration equal to the EC50. The final concentration of test compounds in the assay wells is between 1 μM and 5 μM. […] The concentration of antagonist required to provide a 50% decrease, relative to the response observed in the presence of capsaicin and without antagonist, is the IC50 for the antagonist, and is preferably below 1 micromolar, 100 nanomolar, 10 nanomolar or 1 nanomolar.

T1 sequence (Q8NER1 whole entry): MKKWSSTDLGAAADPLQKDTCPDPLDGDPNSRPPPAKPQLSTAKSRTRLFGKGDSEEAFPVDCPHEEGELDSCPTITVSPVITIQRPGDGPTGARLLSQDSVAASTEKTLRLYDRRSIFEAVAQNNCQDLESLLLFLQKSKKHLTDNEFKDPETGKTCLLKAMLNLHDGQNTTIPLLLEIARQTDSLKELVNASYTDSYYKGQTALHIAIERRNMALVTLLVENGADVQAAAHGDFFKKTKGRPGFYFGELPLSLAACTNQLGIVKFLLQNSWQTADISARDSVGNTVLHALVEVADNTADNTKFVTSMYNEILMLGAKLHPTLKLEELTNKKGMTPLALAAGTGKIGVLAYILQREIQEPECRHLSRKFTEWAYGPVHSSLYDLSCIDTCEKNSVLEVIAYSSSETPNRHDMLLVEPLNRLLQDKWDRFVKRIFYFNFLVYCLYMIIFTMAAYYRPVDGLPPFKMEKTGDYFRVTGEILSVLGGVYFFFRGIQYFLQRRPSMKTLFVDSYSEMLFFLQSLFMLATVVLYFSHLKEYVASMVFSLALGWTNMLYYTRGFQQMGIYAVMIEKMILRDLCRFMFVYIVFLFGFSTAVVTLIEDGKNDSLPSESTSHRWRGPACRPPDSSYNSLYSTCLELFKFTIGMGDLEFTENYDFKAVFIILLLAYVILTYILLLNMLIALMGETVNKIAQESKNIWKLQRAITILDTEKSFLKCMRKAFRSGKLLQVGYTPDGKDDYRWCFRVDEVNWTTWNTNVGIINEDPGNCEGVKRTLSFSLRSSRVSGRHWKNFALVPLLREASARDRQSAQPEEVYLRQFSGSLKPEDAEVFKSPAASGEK

Row | SMILES | IC50 [nM]
1 | FC(F)(F)c1ccccc1-c1ccc2c(NCCc3ccccc3)ncnc2c1 [Compound 1, N-(2-phenylethyl)-7-{2-(trifluoromethyl)phenyl]quinazolin-4-amine] | ≤ 1000
2 | Fc1ccccc1CCNc1ncnc2cc(-c3ncccc3C(F)(F)F)ccc12 [Compound 6, N-[2-(2-fluorophenyl)ethyl]-7-[3-(trifluoromethyl)pyridin-2-yl]quinazolin-4-amine] | ≤ 1000
3 | Fc1cccc(CCNc2ncnc3cc(-c4ncccc4C(F)(F)F)ccc23)c1 [Compound 7, N-[2-(3-fluorophenyl)ethyl]-7-[3-(trifluoromethyl)pyridin-2-yl]quinazolin-4-amine] | ≤ 1000
4 | Fc1ccc(CCNc2ncnc3cc(-c4ncccc4C(F)(F)F)ccc23)cc1 [Compound 8, N-[2-(4-fluorophenyl)ethyl]-7-[3-(trifluoromethyl)pyridin-2-yl]quinazolin-4-amine] | ≤ 1000
5 | COc1ccccc1CCNc1ncnc2cc(-c3ncccc3C(F)(F)F)ccc12 [Compound 9, N-[2-(2-methoxyphenyl)ethYl]-7-{3-(trifluoromethyl)pyridin-2-yl]quinazolin-4-amine] | ≤ 1000
6 | COc1cccc(CCNc2ncnc3cc(-c4ncccc4C(F)(F)F)ccc23)c1 [Compound 10, N-[2-(3-methoxyphenyl)ethyl]7-[3-(trifluoromethyl)pyridin-2-yl]quinazolin-4-amine] | ≤ 1000
7 | COc1ccc(CCNc2ncnc3cc(-c4ncccc4C(F)(F)F)ccc23)cc1 [Compound 11, N-[2-(4-methoxyphenyl)ethyl]-7-[3-(trifluoromethyl)pyridin-2-yl]quinazolin-4-amine] | ≤ 1000
8 | FC(F)(F)c1cccnc1-c1ccc2c(NCCc3ccccc3Cl)ncnc2c1 [Compound 12, N-[2-(2-chlorophenyl)ethyl]-7-[3-(trifluoromethyl)pyridin-2-yl]quinazolin-4-amine] | ≤ 1000
9 | FC(F)(F)c1cccnc1-c1ccc2c(NCCc3cccc(Cl)c3)ncnc2c1 [Compound 13, N-[2-(3-chlorophenyl)ethyl]-7-{3-(trifluoromethyl)pyridin-2-yl]quinazolin-4-amine] | ≤ 1000
10 | FC(F)(F)c1cccnc1-c1ccc2c(NCCc3ccc(Cl)cc3)ncnc2c1 [Compound 14, N-[2-(4-chlorophenyl)ethyl]-7-[3-(trifluoromethyl)pyridin-2-yl]quinazolin-4-amine] | ≤ 1000
11 | FC(F)(F)c1ccccc1CCNc1ncnc2cc(-c3ncccc3C(F)(F)F)ccc12 [Compound 15, N-{2-[2-(trifluoromethyl)phenyl]ethyl}-7-[3-(trifluoromethyl)pyridin-2-yl]quinazolin-4-amine] | ≤ 1000
12 | FC(F)(F)c1cccc(CCNc2ncnc3cc(-c4ncccc4C(F)(F)F)ccc23)c1 [Compound 16, N-{2-[3-(trifluoromethyl)phenyl]ethyl}-7-[3-(trifluoromethyl)pyridin-2-yl]quinazolin-4-amine] | ≤ 1000
13 | FC(F)(F)c1ccc(CCNc2ncnc3cc(-c4ncccc4C(F)(F)F)ccc23)cc1 [Compound 17, N-{2-[4-(trifluoromethyl)phenyl]ethyl}-7-[3-(trifluoromethyl)pyridin-2-yl]quinazolin-4-amine] | ≤ 1000
14 | CC(CNc1ncnc2cc(-c3ncccc3C(F)(F)F)ccc12)c1ccccc1 (centres unmarked) [Compound 18, N-(2-phenylpropyl)-7-[3-(trifluoromethyl)pyridin-2-yl]quinazolin-4-amine] | ≤ 1000
15 | FC(F)(F)c1cccnc1-c1ccc2c(NCCc3c(Cl)cccc3Cl)ncnc2c1 [Compound 19, N-[2-(2,6-dichlorophenyl)ethyl]-7-[3-(trifluoromethyl)pyridin-2-yl]quinazolin-4-amine] | ≤ 1000
16 | FC(F)(F)c1cccnc1-c1ccc2c(NCCc3ccc(Cl)c(Cl)c3)ncnc2c1 [Compound 20, N-[2-(3,4-dichlorophenyl)ethyl]-7-[3-(trifluoromethyl)pyridin-2-yl]quinazolin-4-anmne] | ≤ 1000
17 | CC(Cc1ccc(Cl)cc1)Nc1ncnc2cc(-c3ncccc3C(F)(F)F)ccc12 (centres unmarked) [Compound 21, N-[2-(4-chlorophenyl)-1-methylethyl]-7-[3-(trifluoromethyl)pyridin-2-yl]quinazolin-4-amine] | ≤ 1000
18 | FC(F)(F)c1cccnc1-c1ccc2c(NCCc3ccccc3)ncnc2c1 [Compound 22, N-(2-phenylethyl)-7-[3-(trifluoromethyl)pyridin-2-yl]quinazolin-4-amine] | ≤ 1000

Further lines, results first:

Row | IC50 [nM] | SMILES
19 | ≤ 1000 | C[C@@H](CNc1ncnc2cc(-c3ncccc3C(F)(F)F)ccc12)c1ccccc1 [Compound 23, N-[(2R)~2-phenylpropyll]-7-[3-(trifluoromethyl)pyridin-2-yl]quinazolin-4-amine]
20 | ≤ 1000 | C[C@@H]1CN(Cc2nc(NCCc3ccccc3Cl)c3ccc(-c4ncccc4C(F)(F)F)cc3n2)C[C@H](C)O1 [Compound 24, N-[2-(2-chlorophenyl)ethyl]-2-{[(2R,6S)-2,6-dimethylmorpholin-4-yl]methyl}-7-[3-(trifluoromethyl)pyridin-2-yl]quinazolin-4-amine]
21 | ≤ 1000 | C[C@H](CNc1ncnc2cc(-c3ncccc3C(F)(F)F)ccc12)c1ccccc1 [Compound 25, N-[(2S)-2-phenylpropyl]-7-[3 (trifluoromethyl)pyridin-2-yl]quinazolin-4-amine]
22 | ≤ 1000 | Fc1cccc(F)c1CCNc1ncnc2cc(-c3ncccc3C(F)(F)F)ccc12 [Compound 26, N-[2-(2,6-difluorophenyl)ethYl]-7-[3-(trifluoromethyl)pyridin-2-yl]quinazolin-4-amine]
23 | ≤ 1000 | Fc1ccc(CCNc2ncnc3cc(-c4ncccc4C(F)(F)F)ccc23)cc1F [Compound 27, N-[2-(3,4-difluorophenyl)ethyl]-7-[3-(trifluoromethyl)pyridin-2-yl]quinazolin-4-amine]
24 | ≤ 1000 | Fc1cc(F)cc(CCNc2ncnc3cc(-c4ncccc4C(F)(F)F)ccc23)c1 [Compound 28, N-[2-(3,5-difluorophenyl)ethyl]-7-[3-(trifluoromethyl)pyridin-2-yl]quinazolin-4-amine]
25 | ≤ 1000 | C[C@@H]1CN(Cc2nc(NCCc3ccccc3Cl)c3ncc(-c4ncccc4Cl)cc3n2)C[C@H](C)O1 [Compound 29, N-[2-(2-chlorophenyl)ethyl]-7-(3-chloropyridin-2-yl)-2-{[(2R,6S)-2,6-dimethylmorpholin-4-yl]methyl}pyrido[3,2-d]pyrimidin-4-amine]
26 | ≤ 1000 | Cc1nc(NCCc2ccccc2Cl)c2ncc(-c3ncccc3Cl)cc2n1 [Compound 30, N-[2-(2-chlorophenyl)ethyl]-7-(3-chloropyridin-2-yl)-2-methylpyrido[3,2-d]pyrimidin-4-amine]
27 | ≤ 1000 | FC(F)(F)c1cccnc1-c1ccc2c(N[C@@H]3C[C@H]3c3ccccc3)ncnc2c1 [Compound 31, N-[(1R,2S)-2-phenylcyclopropyl]-7-[3-(trifluoromethyl)pyridin-2-yl]quinazolin-4-amine]
28 | ≤ 1000 | Cc1nc(NCCc2ccccc2Cl)c2ccc(-c3ncccc3C)nc2n1 [Compound 32, N-[2-(2-chlorophenyl)ethyl]-2-methyl-7-(3-methylpyridin-2-yl)pyrido[2,3-d]pyrimidin-4-amine]

same assay, conditions: Table II; 50% decrease in fluorescence response of cells expressing human capsaicin receptor exposed to capsaicin

Row | IC50 [nM] | SMILES
29 | ≤ 1000 | C[C@@H]1CN(Cc2nc(NCCc3ccccc3Cl)c3ccc(-c4ncccc4Cl)cc3n2)C[C@@H](C)O1 (stereo in doubt) [Compound 166, [2-(2-Chloro-phenyl)-ethyl]-[7-(3-chloro-pyridin-2-yl)-2-(2,6-dimethyl-morpholin-4-ylmethyl)-quinazolin-4-yl]-amine]
